Patent US20180177147A1, “METHODS AND COMPOSITIONS FOR CULTIVATING PLANTS AND ARTIFICIAL PLANT SEEDS” (E I DU PONT DE NEMOURS AND COMPANY, priority 2014, published 2018)

What was measured:
[1] = tested on: sugarcane choplets; assay: Survival in synthetic soil of choplets from hardened plantlets after one-day immersion in water or hormone media; format: in vivo; conditions: 1-day choplet treatment, 40 planted; for % surviving: day 10 in soil; for alive @ day 10: soil, artificial growth chamber
Method: This example describes choplet growth outcomes in soil (survival; morphology) when the plantlets were hardened by various treatments such as nutrient deprivation or osmoticum exposure. The hardening protocols for the plantlets were gradual (multi-day) acclimation of the tissue to decreasing sucrose and/or to increasing polyethylene glycol 6000 (PEG-6000) in LPM. The hardening treatment was evaluated at two stages: the growth of treated plantlets transplanted to synthetic soil; and the survival of choplets from plantlets in a controlled environment.
In another study, three hardening treatments were evaluated but group C hardening treatment was modified: Group C plantlets were grown in LPM for 7 days followed by transfer every two days to a medium containing higher PEG-6000 levels until the medium content had 3% sucrose and 0.2% PEG-6000. At the end of growth in tissue culture (17 days), the plantlets were transplanted to soil.
The second test of these treated plantlets was to produce choplets and evaluate the choplets' success when transplanted to synthetic soil (Table 4). Choplets were produced from sugarcane plantlets followed by a one-day immersion in a media of water, a known plant media, or a known plant media or water containing a growth hormone, such as (6-benzylaminopurine (BAP) or gibberellins 3 (GA3)). […] Choplet preparation may comprise plantlet hardening treatment and/or media treatment after formation of a choplet.

[2] = tested on: sugarcane choplets; assay: Soil outcomes of unembedded and embedded (F4 paper tube artificial seed) choplets incubated in various media; format: in vivo; conditions: 21 hr in bathing solution, MetroMix soil
Method: This example describes the soil growth advantage conferred by the enclosure or encapsulation of sugarcane choplets in paper tubes with Parafilm™ covers at bottom and top. The choplets were from plantlets produced by a standard plantlet production process or from a hardening treatment (e.g. high CO2) in the temporary immersion Adaptis™ bioreactors. The choplets were incubated in various media. The media were sterile water; LPM; BAP=[…] prepared by solubilizing solid in dimethylsulfoxide to make 1 mg/mL stock then diluted stock solution in water (50 uL to 50 mL final volume) to prepare 1 mg/L working solution; GA3=giberellin 3 prepared by diluting commercial stock solution (1 mg/mL) in water to form a 1 mg/L working solution. The choplets were segregated into 4 groups of at least 50 choplets. Each group of choplets was weighed on a petri dish before addition of the 7 mL of bathing solution: water; LPM; BAP; and GA3. Each dish was covered and the edge was sealed with 3M Micropore™ tape. The petri dishes were secured to a nutator inside a walk-in growth chamber for 21 hr. For each choplet group, either ten (10) or twenty (20) F4 paper seed structures containing MetroMix™ soil and 200 uL water were assembled with triblock top and bottom lids. The structures were transplanted in a flat containing water-saturated MetroMix™ soil such that the top of the seed design is flush with the top of the soil surface. Encapsulating the choplet in an artificial seed provided improvement in soil survival for all media incubation groups except GA3.

[3] = hardening Group B (lowered sucrose)
[4] = choplets in F4 paper tube artificial seeds

SMILES | % surviving ([1]; hardening Group A (LPM)) [%] | alive @ day 10 ([1]; hardening Group A (LPM)) | % surviving [1, 3] [%] | alive @ day 10 [1, 3] | % surviving ([1]; hardening Group C (PEG-6000)) [%] | alive @ day 10 ([1]; hardening Group C (PEG-6000)) | Surviving on day 6 [2, 4] | Surviving on day 17 (% surviving) [2, 4] [%] | Surviving on day 17 (number) [2, 4] | Surviving on day 6 ([2]; unembedded choplets) | Surviving on day 17 (% surviving) ([2]; unembedded choplets) [%] | Surviving on day 17 (number) ([2]; unembedded choplets)
c1ccc(CNc2ncnc3nc[nH]c23)cc1 [BAP, 6-benzylaminopurine] | 18 | 7 | 28 | 11 | 25 | 10 | 20 | 55 | 11 | 6 | 7 | 1
C=C1C[C@]23C[C@@]1(O)CC[C@H]2[C@@]12C=C[C@H](O)[C@@](C)(C(=O)O1)[C@H]2[C@@H]3C(=O)O [GA3, gibberellins 3] | 10 | 4 | 25 | 10 | 38 | 15 | 20 | 30 | 6 | 9 | 29 | 4
